Measured values: article PMC6593427, “DUckCov: a Dynamic Undocking‐Based Virtual Screening Protocol for Covalent Binders” (Chemmedchem, 2019)

Tests used:
Format in all cases: biochemical
JAK3 = molecular target: T1, JAK3 (Homo sapiens, UniProt P52333); test: Z'-LYTE FRET kinase assay, 10-point titration
T1 construct: commercial Z'-LYTE kinase assay (Life Technologies)
T1 sequence (P52333 1-1124): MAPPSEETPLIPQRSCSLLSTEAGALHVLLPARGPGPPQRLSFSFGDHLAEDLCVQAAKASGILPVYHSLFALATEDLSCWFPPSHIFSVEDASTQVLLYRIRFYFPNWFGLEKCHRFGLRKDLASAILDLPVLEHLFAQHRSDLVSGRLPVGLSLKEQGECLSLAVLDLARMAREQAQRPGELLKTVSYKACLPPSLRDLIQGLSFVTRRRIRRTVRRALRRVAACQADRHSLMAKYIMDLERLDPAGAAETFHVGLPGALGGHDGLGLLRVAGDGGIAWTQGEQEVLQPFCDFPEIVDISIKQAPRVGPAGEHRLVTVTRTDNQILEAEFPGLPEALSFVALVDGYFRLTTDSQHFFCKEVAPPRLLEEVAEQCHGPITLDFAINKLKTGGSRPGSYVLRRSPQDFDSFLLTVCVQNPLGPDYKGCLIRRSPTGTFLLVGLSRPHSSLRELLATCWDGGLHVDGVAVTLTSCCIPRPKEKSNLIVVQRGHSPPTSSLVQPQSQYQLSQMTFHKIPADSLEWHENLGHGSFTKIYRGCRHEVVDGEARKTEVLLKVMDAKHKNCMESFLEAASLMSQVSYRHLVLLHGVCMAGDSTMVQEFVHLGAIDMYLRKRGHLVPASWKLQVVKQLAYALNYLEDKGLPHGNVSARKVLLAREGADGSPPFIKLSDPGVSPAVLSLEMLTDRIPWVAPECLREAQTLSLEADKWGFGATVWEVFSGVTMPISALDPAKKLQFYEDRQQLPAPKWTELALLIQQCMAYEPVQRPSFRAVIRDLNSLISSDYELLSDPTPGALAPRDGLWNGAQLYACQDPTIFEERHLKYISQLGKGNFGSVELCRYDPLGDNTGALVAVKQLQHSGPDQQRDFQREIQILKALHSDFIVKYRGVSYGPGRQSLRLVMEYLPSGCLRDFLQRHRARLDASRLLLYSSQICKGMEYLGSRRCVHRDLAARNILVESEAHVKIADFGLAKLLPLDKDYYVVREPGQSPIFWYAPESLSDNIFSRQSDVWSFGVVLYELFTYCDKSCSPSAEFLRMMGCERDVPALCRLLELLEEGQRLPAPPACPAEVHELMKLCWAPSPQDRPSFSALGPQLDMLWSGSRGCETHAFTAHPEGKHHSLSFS

JAK2 = JAK2 (Homo sapiens, UniProt O60674); test: kinase inhibition assay
JAK1 = JAK1 (Homo sapiens, UniProt P23458); test: kinase inhibition assay
JAK1, sequence (P23458 whole entry): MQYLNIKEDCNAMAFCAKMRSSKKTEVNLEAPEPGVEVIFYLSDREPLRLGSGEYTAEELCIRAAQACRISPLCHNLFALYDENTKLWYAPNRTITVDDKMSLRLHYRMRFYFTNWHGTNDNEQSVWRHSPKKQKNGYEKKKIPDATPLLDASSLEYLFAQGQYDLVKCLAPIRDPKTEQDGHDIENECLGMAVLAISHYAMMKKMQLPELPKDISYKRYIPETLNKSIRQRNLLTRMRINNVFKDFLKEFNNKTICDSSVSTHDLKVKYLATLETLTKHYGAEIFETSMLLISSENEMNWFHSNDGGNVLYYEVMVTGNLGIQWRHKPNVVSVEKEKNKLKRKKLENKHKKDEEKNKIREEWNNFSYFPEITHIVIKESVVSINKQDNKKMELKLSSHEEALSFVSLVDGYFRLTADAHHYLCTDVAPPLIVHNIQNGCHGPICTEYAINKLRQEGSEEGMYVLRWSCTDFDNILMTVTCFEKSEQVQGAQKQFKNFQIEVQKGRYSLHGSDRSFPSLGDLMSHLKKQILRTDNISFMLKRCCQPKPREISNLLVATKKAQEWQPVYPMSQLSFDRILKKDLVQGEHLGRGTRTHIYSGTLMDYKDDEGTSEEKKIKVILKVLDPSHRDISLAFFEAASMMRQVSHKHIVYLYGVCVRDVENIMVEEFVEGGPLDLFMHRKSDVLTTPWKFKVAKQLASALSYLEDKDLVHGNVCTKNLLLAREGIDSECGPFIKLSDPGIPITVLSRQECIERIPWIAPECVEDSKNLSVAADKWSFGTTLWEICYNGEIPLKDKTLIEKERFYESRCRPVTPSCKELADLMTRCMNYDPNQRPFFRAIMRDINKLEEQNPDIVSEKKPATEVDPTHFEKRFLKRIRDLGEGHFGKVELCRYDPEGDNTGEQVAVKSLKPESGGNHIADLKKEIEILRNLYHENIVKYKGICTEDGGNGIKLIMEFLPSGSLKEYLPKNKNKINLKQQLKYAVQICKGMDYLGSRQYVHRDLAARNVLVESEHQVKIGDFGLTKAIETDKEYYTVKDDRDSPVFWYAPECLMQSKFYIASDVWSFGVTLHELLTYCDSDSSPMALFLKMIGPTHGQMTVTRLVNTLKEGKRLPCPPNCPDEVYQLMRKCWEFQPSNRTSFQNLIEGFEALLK

JAK2, sequence (O60674 whole entry): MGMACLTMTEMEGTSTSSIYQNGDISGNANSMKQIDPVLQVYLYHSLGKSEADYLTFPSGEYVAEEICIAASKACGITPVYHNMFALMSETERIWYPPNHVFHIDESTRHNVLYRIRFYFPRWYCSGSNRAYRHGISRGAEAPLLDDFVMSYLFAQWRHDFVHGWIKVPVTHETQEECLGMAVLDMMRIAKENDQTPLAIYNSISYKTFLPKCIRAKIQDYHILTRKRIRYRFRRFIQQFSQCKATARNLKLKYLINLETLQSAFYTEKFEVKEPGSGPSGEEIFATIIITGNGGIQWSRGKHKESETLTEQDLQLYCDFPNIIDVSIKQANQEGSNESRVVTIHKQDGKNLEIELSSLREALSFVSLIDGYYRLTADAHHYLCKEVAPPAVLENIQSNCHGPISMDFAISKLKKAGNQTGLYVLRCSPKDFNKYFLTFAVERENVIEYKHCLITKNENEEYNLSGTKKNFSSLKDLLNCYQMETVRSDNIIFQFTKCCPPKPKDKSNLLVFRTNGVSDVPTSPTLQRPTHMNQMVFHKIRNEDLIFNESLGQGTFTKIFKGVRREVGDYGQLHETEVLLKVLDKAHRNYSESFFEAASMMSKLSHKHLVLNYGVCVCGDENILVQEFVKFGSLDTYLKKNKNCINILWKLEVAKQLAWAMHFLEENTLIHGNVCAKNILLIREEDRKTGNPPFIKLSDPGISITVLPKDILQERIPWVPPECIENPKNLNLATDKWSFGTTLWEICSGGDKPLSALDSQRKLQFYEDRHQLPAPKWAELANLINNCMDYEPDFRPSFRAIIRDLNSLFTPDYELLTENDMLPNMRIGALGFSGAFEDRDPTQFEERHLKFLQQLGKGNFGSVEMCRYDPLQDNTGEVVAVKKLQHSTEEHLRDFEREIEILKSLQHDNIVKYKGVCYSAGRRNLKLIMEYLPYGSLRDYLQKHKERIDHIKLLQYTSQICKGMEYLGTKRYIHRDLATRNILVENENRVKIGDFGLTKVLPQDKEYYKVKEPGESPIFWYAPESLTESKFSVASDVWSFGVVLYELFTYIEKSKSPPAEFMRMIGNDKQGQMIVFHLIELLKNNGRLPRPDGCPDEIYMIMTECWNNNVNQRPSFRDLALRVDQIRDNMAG

Compound: C=CC(=O)Nc1cc(NC(=O)c2n[nH]c3ccccc23)ccc1F [compound 5]
- IC50 (JAK3): 389 nM
- inhibition at 10 µM (JAK2): 62%
- inhibition at 10 µM (JAK1): 18%

Compound: C=CC(=O)N1C[C@H](COc2nc(Nc3cnn(C)c3)nc3[nH]cc(Cl)c23)[C@@H](OC)C1 [compound 1, PF-06459988]
- IC50 (JAK3): 5 nM

Compound: C=CC(=O)Nc1cc(NC(=O)c2n[nH]c3c2CCC3)ccc1F [compound 9]
- IC50 (JAK3): 1270 nM
